In US6603031B1, “Vitamin D derivatives with cyclic substructures in the side chains, process and intermediate products for their production, and the use for the production of pharmaceutical agents” (Schering Aktiengesellschaft, priority 1999, dated 2003):
Read-outs that look alike come from different tables or passages of the source.

Assays:
[1] = test system: HL 60 cells; assay: differentiation induction of HL 60 cells to macrophages (NBT reduction); assay type: cell-based, human; details: 96 hours incubation, reference calcitriol
Experimental: The differentiation-stimulating action of calcitriol analogues is also detected quantitatively.
It is known in the literature [D. J. Mangelsdorf et al., J. Cell. Biol. 98: 391 (1984)] that the treatment of human leukemia cells (promyelocyte cell line HL 60) in vitro with calcitriol induces the differentiation of cells to macrophages.
HL 60 cells are cultivated in tissue culture medium (RPMI 10% fetal calf serum) at 37° C. in an atmosphere of 5% CO2 in air.
For substance testing, the cells are centrifuged off, and 2.0×10^5 cells/ml in phenol red-free tissue culture medium is taken up. The test substances are dissolved in ethanol and diluted with tissue culture medium without phenol red to the desired concentration. The dilution stages are mixed with the cell suspension at a ratio of 1:10, and 100 μl each of this cell suspension that is mixed with substance is pipetted into an indentation of a 96-hole plate. For control, a cell suspension is mixed analogously with the solvent.
After incubation for 96 hours at 37° C. in 5% CO2 in air, 100 μl of an NBT-TPA solution (nitro blue tetrazolium (NBT), final concentration in the batch of 1 mg/ml, tetradecanoyl phorbolmyristate-13-acetate (TPA), final concentration in the batch of 2×10^−7 mol/l) is pipetted into each indentation of the 96-hole plate in the cell suspension.
By incubation for 2 hours at 37° C. and 5% CO2 in air, NBT is reduced to insoluble formazan because of the intracellular oxygen radical release, stimulated by TPA, in the cells that are differentiated to macrophages.
To complete the reaction, the indentations of the 96-hole plate are suctioned off, and the cells are affixed to the bottom of the plate by adding methanol and dried after affixing. To dissolve the intracellular formazan crystals that are formed, 100 μl of potassium hydroxide (2 mol/l) and 100 μl of dimethyl sulfoxide are pipetted into each indentation and ultrasonically treated for 1 minute. The concentration of formazan is measured by spectrophotometry at 650 nm.
As a yardstick for the differentiation induction of HL 60 cells to macrophages, the concentration of formed formazan applies.

[2] = rat, in vivo, sc
Experimental: (§1) To determine the acute hypercalcemic action of various calcitriol derivatives, the test that is described below is carried out:
(§2) During the testing time, the rats are kept in special cages to determine the excretion-of water-and mineral substances. Urine is collected in 2 fractions (0-16 hours and 16-22 hours). An oral dose of calcium (0.1 mmol of calcium in 6.5% alpha-hydroxypropyl-cellulose, 5 ml/animal) replaces at 1600 hours the calcium intake that is lacking by food deprivation. At the end of the test, the animals are killed by decapitation and exsanguinated to determine the serum-calcium values. For the primary screen test in vivo, an individual standard dose (200 μg/kg) is tested. For selected substances, the result is supported by establishing a dose-effect relation.
(§3) The significance of differences occurring between substance groups and controls and between test substance and reference substance are supported with suitable statistical processes.

[3] = target: T1, vitamin D receptor (Sus scrofa, UniProt A3RGC1); assay: calcitriol-receptor test (competition with 3H-calcitriol); details: protein extract from intestines of juvenile pigs
T1 sequence (A3RGC1 1-427): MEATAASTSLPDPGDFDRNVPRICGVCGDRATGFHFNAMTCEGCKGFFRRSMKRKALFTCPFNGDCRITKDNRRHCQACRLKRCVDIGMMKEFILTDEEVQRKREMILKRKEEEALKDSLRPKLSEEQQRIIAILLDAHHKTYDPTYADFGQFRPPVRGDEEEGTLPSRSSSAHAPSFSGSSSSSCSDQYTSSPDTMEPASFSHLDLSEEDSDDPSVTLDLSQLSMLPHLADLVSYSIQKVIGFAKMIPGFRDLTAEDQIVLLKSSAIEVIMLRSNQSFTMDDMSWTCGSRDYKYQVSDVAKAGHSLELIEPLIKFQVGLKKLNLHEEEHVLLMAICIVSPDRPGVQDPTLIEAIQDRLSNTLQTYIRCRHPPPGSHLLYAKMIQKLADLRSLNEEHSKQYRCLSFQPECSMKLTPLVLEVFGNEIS
Experimental: The vitamin D activity of the substances according to the invention is determined with the aid of the calcitriol-receptor test. It is carried out using a protein extract from the intestines of juvenile pigs. […] To this end, 250 μl of a charcoal-dextran suspension is fed to each test tube and incubated at 4° C. for 20 minutes. Then, the samples are centrifuged at 10,000 g for 5 minutes at 40° C. The supernatant is decanted and measured in a β-counter after 1 hour of equilibration in Picofluor 15™.
The competition curves that are obtained at various concentrations of test substance as well as of reference substance (unlabeled calcitriol) at constant concentration of the reference substance (^3H-calcitriol) are placed in relation to one another, and a competition factor (KF) is determined.
It is defined as a quotient of the concentrations of the respective test substance and the reference substance, which are necessary for 50% competition:
KF=Concentration of test substance at 50% competition/Concentration of reference substance at 50% competition

[4] = acute hypercalcemic action after one-time subcutaneous administration (serum calcium); details: male rats, reference calcitriol
Experimental: as §1, §2, §3

Row | SMILES | DR (Ca) (dose ratio for hypercalcemia, test substance dose/reference substance dose for comparable actions) [2] | KF (competition factor: concentration of test substance / reference substance at 50% competition) [3] | DR (HL 60) (dose ratio test substance/reference substance for comparable semi-maximum actions) [1] | DR (Ca) (dose ratio for hypercalcemia, test substance dose/reference substance dose for comparable actions) [4]
1 | C=C1/C(=C\C=C2/CCC[C@]3(C)[C@@H]([C@H](C)CCCC(C)(C)O)CC[C@@H]23)C[C@@H](O)C[C@@H]1O [Calcitriol, 1,25-dihydroxy vitamin D3, reference compound] |  |  | 1 | 1
2 | C=C1C(=CC=C2CCCC3(C)C2CCC3C(C)CCCC(O)c2cocn2)CC(O)CC1O [20a, (5Z,7E)-(1S,3R,24aR)-24a-(Oxazol-4-yl)-24a-homo-9,10-secochola-5,7,10(19)-triene-1,3,24a-triol] |  | 3 | 2 | >50
3 | C[C@H](CCCC(=O)c1cccs1)[C@H]1CC[C@H]2/C(=C/C=C3C[C@@H](O)C[C@H](O)C3)CCC[C@]12C [compound 57, (7E)-(1R,3R)-1,3-Dihydroxy-24a-(thien-2-yl)-24a-homo-19-nor-9,10-secochola-5,7-dien-24a-one] | >350 | 12 | 2 | 

Now from value to compound, other results behind:

Row | DR (Ca) (dose ratio for hypercalcemia, test substance dose/reference substance dose for comparable actions) [2] | KF (competition factor: concentration of test substance / reference substance at 50% competition) [3] | SMILES | DR (HL 60) (dose ratio test substance/reference substance for comparable semi-maximum actions) [1] | DR (Ca) (dose ratio for hypercalcemia, test substance dose/reference substance dose for comparable actions) [4]
4 | >30 | 5 | CC(CCCC(O)c1cocn1)C1CCC2C(=CC=C3CC(O)CC(O)C3)CCCC21C [16a, (7E)-(1R,3R,24aR)-24a-(Oxazol-4-yl)-24a-homo-19-nor-9,10-secochola-5,7-diene-1,3,24a-triol] | 5 | 
5 | >300 | 7 | C=C1C(=CC=C2CCCC3(C)C2CCC3C(C)CCC(O)c2nccs2)CC(O)CC1O [217a, (5Z,7E)-(1S,3R,24S)-24-(Thiazol-2-yl)-9,10-secochola-5,7,10(19)-triene-1,3,24-triol] | 100 | 
6 | >100 | 5 | C[C@H](CCC[C@H](O)c1cccs1)[C@H]1CC[C@H]2/C(=C/C=C3C[C@@H](O)C[C@H](O)C3)CCC[C@]12C [55b, (7E)-(1R,3R,24aS)-24a-(thien-2-yl)-24a-homo-19-nor-9,10-secochola-5,7-diene-1,3,24a-triol] | 8 | 
